System: fatty liver of the SD rats
Experiment: Pathological sections and grading of fatty liver of SD rats
Assay type: in vivo
Conditions: compounds 80 mg/kg, Sim 10 mg/kg, OCA 10 mg/kg
Method: 500 g of lard oil was taken, placed in a container, and heated to melt. When the temperature rose to 100° C., it was added with 200 g of cholesterol to dissolve completely, and then further added with 20 g of propylthiouracil. The resulted mixture was stirred well, and added with 500 ml of Tween 80 after dissolution, resulting in an oil phase. At the same time, 600 mL of distilled water and 400 mL of 1,2-propanediol were taken and heated to 60° C. in a water bath, then were added with 40 g of sodium deoxycholate. The resulted mixture was stirred well until realizing complete dissolution, so as to give an aqueous phase. The aqueous phase was added into the oil phase and mixed well to give a lipid emulsion. The lipid emulsion was heated in a water bath of 37° C. before intragastric administration to animals.
An appropriate amount of pharmaceutical was weighed, added with 0.5% CMC-Na, and mixed homogeneously by grinding. There are groups for Compound 01 (80 mg/kg), Compound 02 (80 mg/kg), Compound 03 (80 mg/kg), Compound 04 (80 mg/kg), Compound 05 (80 mg/kg), Compound 06 (80 mg)/kg), Compound 07 (80 mg/kg), Compound 08 (80 mg/kg), Compound 09 (80 mg/kg), Compound 10 (80 mg/kg), Compound 11 (80 mg/kg), Compound 12 (80 mg/kg), Compound 13 (80 mg/kg), Compound 14 (80 mg/kg), Compound 15 (80 mg/kg), Compound 16 (80 mg/kg), Compound 17 (80 mg/kg), Compound 18 (80 mg/kg), Compound 19 (80 mg/kg), Compound 20 (80 mg/kg), Compound 21 (80 mg/kg), and Compound 22 (80 mg/kg).
Male SD rats weighing 180-200 g were fed adaptively for 7 days. Based on body weight, 10 animals were used as control and the remaining animals were intragastrically administered with the lipid emulsion every day, 1 ml/100 g body weight for 14 days. After fasting for 12 hours, 1 mL of blood was collected from the orbits of the animals, and was determined by Hitachi Automatic Biochemical Analyzer 7080 for serum cholesterol (CHO), triglyceride (TG), low density lipoprotein (LDL-C) and high density lipoprotein (HDL-C).
The modeled rats were continued with the intragastric administration of the lipid emulsion. At the same time, the pharmaceutical-administered groups were administrated with a corresponding dose of pharmaceuticals, while the Model group was administrated with an equal volume of solvent. The pharmaceutical-administered groups were administrated with the lipid emulsion in the morning, and with the pharmaceuticals in the afternoon. The animals were measured for the body weight once a week, and were observed. After 14 days of continuous administration, 1 mL of blood was collected from the orbits, and was determined for the contents of triglyceride, cholesterol, low density lipoprotein and high density lipoprotein in blood serum.

Compound	Pathological grading: Steatotic hepatocytes (animal 1)	Pathological grading: Steatotic hepatocytes (animal 2)	Pathological grading: Steatotic hepatocytes (animal 3)	Pathological grading: Steatotic hepatocytes (animal 4)	Pathological grading: Steatotic hepatocytes (animal 5)
CC(=O)c1ccc(O)c(CCCOC(=O)c2cccnc2)c1 [Compound 16]	+ (25-45% of hepatocytes undergoing steatosis)	++ (45-65% of hepatocytes undergoing steatosis)	+++ (65-85% or more of hepatocytes undergoing steatosis)	++ (45-65% of hepatocytes undergoing steatosis)	+ (25-45% of hepatocytes undergoing steatosis)
CC(=O)c1ccc(O)c(NC(=O)C(C)(C)CCCOc2cc(C)ccc2C)c1 [Compound 05]	+ (25-45% of hepatocytes undergoing steatosis)	+++ (65-85% or more of hepatocytes undergoing steatosis)	++ (45-65% of hepatocytes undergoing steatosis)	++ (45-65% of hepatocytes undergoing steatosis)	+ (25-45% of hepatocytes undergoing steatosis)
Cc1ccc(C)c(OCCCC(C)(C)C(=O)NCC(=O)c2ccc(NC(=O)c3cccnc3)cc2)c1 [Compound 11]	+ (25-45% of hepatocytes undergoing steatosis)	++ (45-65% of hepatocytes undergoing steatosis)	++ (45-65% of hepatocytes undergoing steatosis)	++ (45-65% of hepatocytes undergoing steatosis)	+ (25-45% of hepatocytes undergoing steatosis)
CC(=O)c1ccc(NC(=O)C(C)(C)Oc2ccc(C3CC3(Cl)Cl)cc2)cc1 (stereo not drawn) [Compound 10]	++ (45-65% of hepatocytes undergoing steatosis)	++ (45-65% of hepatocytes undergoing steatosis)	+ (25-45% of hepatocytes undergoing steatosis)	++ (45-65% of hepatocytes undergoing steatosis)	++ (45-65% of hepatocytes undergoing steatosis)
CC(=O)c1ccc(O)c(NC(=O)c2cccnc2)c1 [Compound 06]	+ (25-45% of hepatocytes undergoing steatosis)	++ (45-65% of hepatocytes undergoing steatosis)	++ (45-65% of hepatocytes undergoing steatosis)	+ (25-45% of hepatocytes undergoing steatosis)	++ (45-65% of hepatocytes undergoing steatosis)
CC(=O)c1ccc(NC(=O)C(C)(C)Oc2ccc(C(=O)c3cccc(Cl)c3)cc2)cc1 [Compound 07]	++ (45-65% of hepatocytes undergoing steatosis)	++ (45-65% of hepatocytes undergoing steatosis)	++ (45-65% of hepatocytes undergoing steatosis)	++ (45-65% of hepatocytes undergoing steatosis)	+ (25-45% of hepatocytes undergoing steatosis)
Nc1ccc(C(=O)CNC(=O)c2cccnc2)cc1 [Compound 03]	++ (45-65% of hepatocytes undergoing steatosis)	+ (25-45% of hepatocytes undergoing steatosis)	+++ (65-85% or more of hepatocytes undergoing steatosis)	++ (45-65% of hepatocytes undergoing steatosis)	++ (45-65% of hepatocytes undergoing steatosis)
CC(=O)c1ccc(NC(=O)c2cccnc2)cc1 [Compound 01]	++ (45-65% of hepatocytes undergoing steatosis)	++ (45-65% of hepatocytes undergoing steatosis)	++ (45-65% of hepatocytes undergoing steatosis)	++ (45-65% of hepatocytes undergoing steatosis)	++ (45-65% of hepatocytes undergoing steatosis)
CC(=O)c1ccc(NC(=O)C(C)(C)Oc2ccc(Cl)cc2)c(O)c1 [Compound 19]	++ (45-65% of hepatocytes undergoing steatosis)	++ (45-65% of hepatocytes undergoing steatosis)	++ (45-65% of hepatocytes undergoing steatosis)	+++ (65-85% or more of hepatocytes undergoing steatosis)	+ (25-45% of hepatocytes undergoing steatosis)
CC(=O)c1ccc(NC(=O)C(C)(C)CCCOc2cc(C)ccc2C)c(O)c1 [Compound 18]	+ (25-45% of hepatocytes undergoing steatosis)	+ (25-45% of hepatocytes undergoing steatosis)	++ (45-65% of hepatocytes undergoing steatosis)	++ (45-65% of hepatocytes undergoing steatosis)	++ (45-65% of hepatocytes undergoing steatosis)
CC(C)(Oc1ccc(Cl)cc1)C(=O)Nc1ccc(C(=O)CNC(=O)c2cccnc2)cc1 [Compound 17]	+ (25-45% of hepatocytes undergoing steatosis)	++ (45-65% of hepatocytes undergoing steatosis)	++ (45-65% of hepatocytes undergoing steatosis)	++ (45-65% of hepatocytes undergoing steatosis)	++ (45-65% of hepatocytes undergoing steatosis)
Cc1ccc(C)c(OCCCC(C)(C)C(=O)NCC(=O)c2ccc(N)cc2)c1 [Compound 04]	++ (45-65% of hepatocytes undergoing steatosis)	++ (45-65% of hepatocytes undergoing steatosis)	++ (45-65% of hepatocytes undergoing steatosis)	+++ (65-85% or more of hepatocytes undergoing steatosis)	++ (45-65% of hepatocytes undergoing steatosis)
CC(=O)c1ccc(O)c(CCCOC(=O)C(C)(C)CCCOc2cc(C)ccc2C)c1 [Compound 15]	++ (45-65% of hepatocytes undergoing steatosis)	+++ (65-85% or more of hepatocytes undergoing steatosis)	++ (45-65% of hepatocytes undergoing steatosis)	++ (45-65% of hepatocytes undergoing steatosis)	++ (45-65% of hepatocytes undergoing steatosis)
CC(=O)c1ccc(NC(=O)C(C)(C)Oc2ccc(Cl)cc2)cc1 [Compound 08]	++ (45-65% of hepatocytes undergoing steatosis)	++ (45-65% of hepatocytes undergoing steatosis)	+ (25-45% of hepatocytes undergoing steatosis)	++ (45-65% of hepatocytes undergoing steatosis)	+ (25-45% of hepatocytes undergoing steatosis)
CC(=O)c1ccc(NC(=O)c2cccnc2)c(O)c1 [Compound 20]	++ (45-65% of hepatocytes undergoing steatosis)	+++ (65-85% or more of hepatocytes undergoing steatosis)	++ (45-65% of hepatocytes undergoing steatosis)	++ (45-65% of hepatocytes undergoing steatosis)	++ (45-65% of hepatocytes undergoing steatosis)
